Experimental data: PMC11157048 (Frontiers in Pharmacology, 2024)
Like-named read-outs stand apart in the source and are kept apart here. Values belong to the compound of their own block, whether it stands above or below them.

Legend:
[1] = test system: aumolertinib metabolism in rat liver microsomes; assay: in vitro; details: probe aumolertinib 25 μM
Procedure: (§1) When screening for inhibitors, the amount of RLM in the system and the reaction time were optimized and set to 0.5 mg/mL and 30 min, respectively. The concentration of the inhibitor was set at 100 μM. […] The above mixture was pre-incubated at 37 °C for 5 min, and then 1 mM NADPH was added to initiate the reaction, and incubated for another 30 min. Afterwards, 400 μL of cold acetonitrile and 20 μL of diazepam (500 ng/mL) were added to the system to stop the reaction. After vortexing for 2 min, the mixture is centrifuged at 16,200 g for 10 min and the supernatant is subjected to analysis by UPLC-MS/MS for the detection of analytes.

[2] = test system: aumolertinib metabolism in human liver microsomes; assay: Inhibition of aumolertinib metabolism in human liver microsomes (IC50, Ki); assay type: in vitro ADME; details: human, human liver microsomes, probe aumolertinib 20 μM
Procedure: as §1

[3] = test system: human liver microsomes (HLM); assay: as above; assay type: in vitro ADME; details: HLM
Procedure: as §1

CYP3A4.1 = CYP3A4.1 (Homo sapiens, UniProt P08684)
[4] = test system: rat liver microsomes (RLM); assay: Inhibition of aumolertinib metabolism in rat liver microsomes (screen, IC50, Ki)
Procedure: as §1

[5] = mouse, in vivo, po
[6] = Pharmacokinetics in AAV8-CYP3A4*1 mice
[7] = rat, in vivo, po, 11 mg/kg
[8] = set-up: method as in Zhou et al., 2021; Liu et al., 2022a; Liu et al., 2022b; details: ref Zhou et al., 2021, Liu et al., 2022a, 2022b; cited from earlier work
[9] = aumolertinib 16.5 mg/kg oral alone (Aum)
[10] = carvedilol 7.5 mg/kg 0.5 h before aumolertinib 16.5 mg/kg oral (Car+Aum)

Chain of CYP3A4.1 (P08684 whole entry): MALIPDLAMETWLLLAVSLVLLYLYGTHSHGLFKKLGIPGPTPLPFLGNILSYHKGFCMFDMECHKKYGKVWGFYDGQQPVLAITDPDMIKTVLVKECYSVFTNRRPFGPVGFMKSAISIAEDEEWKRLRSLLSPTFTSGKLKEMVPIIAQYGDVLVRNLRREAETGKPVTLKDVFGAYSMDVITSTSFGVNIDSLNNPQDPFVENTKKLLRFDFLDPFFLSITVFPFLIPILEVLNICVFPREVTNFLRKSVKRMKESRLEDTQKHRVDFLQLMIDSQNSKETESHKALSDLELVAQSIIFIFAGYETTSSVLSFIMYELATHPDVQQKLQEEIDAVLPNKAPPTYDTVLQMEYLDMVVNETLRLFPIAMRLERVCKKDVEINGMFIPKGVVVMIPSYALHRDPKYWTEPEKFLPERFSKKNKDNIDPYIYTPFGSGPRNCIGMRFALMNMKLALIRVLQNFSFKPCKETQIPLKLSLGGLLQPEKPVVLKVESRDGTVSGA

- IC50 at 30 min [1]: 27.3 ± 2.52 µM
- IC50 at 30 min [2]: 12.7 ± 0.59 µM
- inhibition mechanism [3]: non-competitive and competitive mixed
- Ki ([3]; Lineweaver-Burk secondary plot): 8.81 µM
- αKi ([3]; Lineweaver-Burk secondary plot): 47.76 µM
- inhibition mechanism (CYP3A4.1): competitively inhibited
- inhibition mechanism [4]: non-competitive and competitive mixed
- Ki ([4]; Lineweaver-Burk secondary plot): 16.7 µM
- αKi ([4]; Lineweaver-Burk secondary plot): 51.66 µM
Structure (SMILES): COc1ccccc1OCCNCC(O)COc1cccc2[nH]c3ccccc3c12 (stereo not shown) [Carvedilol]

Structure (SMILES): C=CC(=O)Nc1cc(Nc2nccc(-c3cn(C4CC4)c4ccccc34)n2)c(OC)cc1N(C)CCNC [HAS-719]
- AUC(0-t) [5]: 429.91 ± 178.00 ng·h/mL
- AUC(0-∞) [5]: 572.38 ± 354.11 ng·h/mL
- CLz/F [5]: 586.7 ± 249.8 mL/min/kg
- Cmax [5]: 23.01 ± 11.89 ng/mL
- Tmax [5]: 14.29 ± 13.44 h
- Vz/F [5]: 773.46±1,086.45 L/kg
- t1/2z [5]: 14.62 ± 18.23 h
- AUC(0-t) [6, 9]: 905.88 ± 375.90 ng·h/mL
- AUC(0-∞) [6, 9]: 908.18 ± 374.69 ng·h/mL
- CLz/F [6, 9]: 335 ± 128 mL/min/kg
- Cmax [6, 9]: 47.06 ± 20.43 ng/mL
- Tmax [6, 9]: 10.71 ± 9.53 h
- Vz/F [6, 9]: 113.97 ± 104.36 L/kg
- t1/2z [6, 9]: 3.80 ± 2.94 h
- AUC(0-t) [6, 10]: 663.56 ± 198.24 ng·h/mL
- AUC(0-∞) [6, 10]: 669.24 ± 196.18 ng·h/mL
- CLz/F [6, 10]: 423.8 ± 103 mL/min/kg
- Cmax [6, 10]: 34.97 ± 15.02 ng/mL
- Tmax [6, 10]: 17.86 ± 10.53 h
- Vz/F [6, 10]: 203.88 ± 121.79 L/kg
- t1/2z [6, 10]: 5.34 ± 2.61 h
- CLz/F [7]: 5750.5 ± 2617.5 mL/min/kg
- Vz/F [7]: 1,913.68 ± 1,058.91 L/kg
- t1/2z [7]: 3.69 ± 0.57 h
- plasma exposure relative to the parent drug [8]: 40%

Structure (SMILES): CCCc1nc2c(C)cc(-c3nc4ccccc4n3C)cc2n1Cc1ccc(-c2ccccc2C(=O)O)cc1 [Telmisartan]
- IC50 at 30 min [1]: 12.8 ± 0.18 µM
- α [3]: 0.59
- α ([3]; listed as telmisartan): < 1
- inhibition mechanism [4]: mixed (non-competitive and uncompetitive)
- α [4]: 0.54
- α ([4]; listed as telmisartan): < 1
